Results reported in patent publication US20230115335A1, “PYRAZOLE DERIVATIVES WITH ANTICANCER ACTIVITY” (BOARD OF REGENTS, THE UNIVERSITY OF TEXAS SYSTEM, priority 2021, published 2023).
“Also recorded” adds a separate entry of the source. Read-outs that look alike come from different tables or passages of the source.

Key:
Tubulin = Tubulin polymerization, biochemical assays
HL-60 = assay: DNS cytotoxicity assay, HL-60; format: cell-based; settings: Homo sapiens, Lymphoma-Leukemia, 48 hrs
Source text: (§1) Using the high throughput Differential Nuclear Staining (DNS) screening assay (Lema et al., Current Cellular Biochemistry 1, 1-14, 2011) 15 pyrazole compounds were synthesized and screened on the human T-cell Acute Lymphoblastic Leukemia CEM cell line (Tables 1 and 2). […] The compounds were synthesized based on a pyrazole backbone structure previously determined to have potent cytotoxic activity (FIG. 5). Several commercial and non-commercial analogues (see Table 3) have been tested and determined that the ones with highest activity have a similar structure circled in FIG. 5. […] SSK-3 has been tested on a few cancer cell lines (see Table 4) and also found to induce programmed cell death via a variety of biochemical assays. […] Since the non-adherent (free floating) lymphoma/leukemia cell lines divide faster than the adherent cell lines, they were incubated for a shorter period (48 h) of time with the compound.
(§2) SSK-3 has potent cytotoxic activity against a panel of human cancer cell lines. The cytotoxic activity of SSK-3 was examined by the DNS assay (Lema et al., Current Cellular Biochemistry 1, 1-14, 2011). Lymphoma/leukemia cell lines, which grow in suspension, were incubated for 48 h with the compounds. […] After treatment, images were acquired and analyzed to determine percentages of live/dead cells and their cytotoxicity. […]

MM.1R = assay: DNS cytotoxicity assay, MM.1R; format: cell-based; settings: Homo sapiens, Multiple Myeloma, 48 or 72 hrs
Source text: as §1, §2

Colo 205 = assay: DNS cytotoxicity assay, Colo 205; format: cell-based; settings: Homo sapiens, Colon Cancer, 72 hrs
Source text: as §1, §2

T47D = assay: DNS cytotoxicity assay, T47D; format: cell-based; settings: Homo sapiens, Breat Cancer, 72 hrs
Source text: as §1, §2

CEM cells [1] = assay: Mitochondrial depolarization; format: cell-based, human; settings: CC50 and 2×CC50
Method: (§3) FIG. 2A-2C. […] CEM cells were treated at the CC50 and twice (2×) that concentration of SSK-3.
(§4) SSK-3 induces caspase-3 activation. Mitochondrial depolarization is one of the salient features of cell-death induction and this was observed after treatment of CEM cells with SSK-3 (FIG. 2A). […] CEM cells were treated with SSK-3 for 7 h and subsequently stained with the NucView caspase-3 substrate and analyzed via flow cytometry (Gutierrez et al., Cell biology and toxicology 35, 503-19, 2019) (FIG. 2B).

CEM cells [2] = assay: Mode of cell death: intrinsic apoptosis pathway; format: cell-based, human
Method: as §3
These compounds were tested in mice at a concentration of 160 mg/kg and after 3-4 daily doses, animals tolerated the treatments well. Different cytotoxicity patterns of the compounds against distinct cell lines has been noted, and it is therefore possible that distinct pyrazoles will act on distinct cellular effectors with different modes of action. However, all of the pyrazole compounds so far tested including SSK-3 induce cell death via the intrinsic apoptosis pathway as will be described below.

CEM cell line = assay: DNS cytotoxicity assay, CEM; format: cell-based, human
Source text: […] […] After treatment, images were acquired and analyzed to determine percentages of live/dead cells and their cytotoxicity. […] The Hs-27 non-cancerous human foreskin fibroblast cell line was used for comparison purposes.

[3] = test system: membrane microtubule organization; assay: Membrane microtubule organization; format: cell-based; settings: 2 hours; vs DMSO control
RPMI-8226 = assay: DNS cytotoxicity assay, RPMI-8226; format: cell-based; settings: Homo sapiens, Multiple Myeloma, 48 or 72 hrs
Source text: as §1, §2

NALM-6 = assay: DNS cytotoxicity assay, NALM-6; format: cell-based; settings: Homo sapiens, Lymphoma-Leukemia, 48 hrs
Source text: as §1, §2

[4] = DNS cytotoxicity assay, HS-27 non-cancerous fibroblast; format: cell-based; settings: human, Hs-27 non-cancerous foreskin fibroblast cells; Table 4; Normal Fibroblast; 72 hrs; read-out: CC50 HS27
Method: (§5) Since the non-adherent (free floating) lymphoma/leukemia cell lines divide faster than the adherent cell lines, they were incubated for a shorter period (48 h) of time with the compound.
(§6) Lymphoma/leukemia cell lines, which grow in suspension, were incubated for 48 h with the compounds. […] After treatment, images were acquired and analyzed to determine percentages of live/dead cells and their cytotoxicity. […] The Hs-27 non-cancerous human foreskin fibroblast cell line was used for comparison purposes.

Jurkat = assay: DNS cytotoxicity assay, Jurkat; format: cell-based, human
Source text: as §1
SSK-3 has potent cytotoxic activity against a panel of human cancer cell lines. The cytotoxic activity of SSK-3 was examined by the DNS assay (Lema et al., Current Cellular Biochemistry 1, 1-14, 2011). Lymphoma/leukemia cell lines, which grow in suspension, were incubated for 48 h with the compounds. Since the adherent cells generally divide at a slower rate than the non-adherent cell lines, the MDA-MB231, HCC1419, T47D, COLO205, PANC-1, A-549 adherent cancer cells lines were incubated for 72 h in the presence of the compounds. After treatment, images were acquired and analyzed to determine percentages of live/dead cells and their cytotoxicity. […] The Hs-27 non-cancerous human foreskin fibroblast cell line was used for comparison purposes.

MiNO = assay: DNS cytotoxicity assay, MiNO; format: cell-based; settings: Homo sapiens, Mantle cell Lymphoma, 48 or 72 hrs
Source text: as §1, §2

Jeko-1 = assay: DNS cytotoxicity assay, Jeko-1; format: cell-based; settings: Homo sapiens, Mantle cell Lymphoma, 48 or 72 hrs
Source text: as §1, §2

CEM cells [5] = assay: Generation of Reactive Oxygen Species; format: cell-based, human; settings: CC50 and 2×CC50
MM.1S = assay: DNS cytotoxicity assay, MM.1S; format: cell-based; settings: Homo sapiens, MM1.S; Multiple Myeloma; 48 or 72 hrs
Source text: as §1, §2

HL-60 leukemia cell line = assay: Apoptosis induction in HL-60; format: cell-based
PANC-1 = assay: DNS cytotoxicity assay, PANC-1; format: cell-based; settings: Homo sapiens, Pancreatic cancer, 72 hrs
Source text: as §1, §2

JVM-13 = assay: DNS cytotoxicity assay, JVM-13; format: cell-based; settings: Homo sapiens, JVM13; Mantle cell Lymphoma; 48 or 72 hrs
Source text: as §1, §2

CEM cells [6] = assay: Phosphatidylserine externalization, Annexin V-FITC/PI assay; format: cell-based, human; settings: CC50 and 2×CC50 (0.24 and 0.48 μM printed), vs solvent control
Method: FIG. 1. […] CEM cells were treated at the CC50 and twice (2×) that concentration of SSK-3. Note that PS externalization is an early marker of apoptosis. * Indicates P value less than 0.001.
SSK-3 induces significant phosphatidylserine externalization. To corrobotate whether SSK-3 utilizes apoptosis to induce cell death, we measured phosphatidylserine (PS) externalization in SSK-3-treated CEM cells by using the Annexin V-FITC/PI assay (3, 4).

RAMOS = assay: DNS cytotoxicity assay, RAMOS; format: cell-based; settings: Homo sapiens, Lymphoma-Leukemia, 48 hrs
Source text: as §1, §2

caspase-3 in CEM cells = assay: Caspase-3 activation, NucView substrate, flow cytometry; format: cell-based, human; settings: 7 h, P<0.05 vs DMSO control
Method: as §3, §4

cell cycle = assay: Cell cycle arrest; format: cell-based; settings: data not shown
JVM-2 = assay: DNS cytotoxicity assay, JVM-2; format: cell-based; settings: Homo sapiens, Mantle cell Lymphoma, 48 or 72 hrs
Source text: as §1, §2

HCC1419 = assay: DNS cytotoxicity assay, HCC1419; format: cell-based; settings: Homo sapiens, Breat Cancer, 72 hrs
Source text: as §1, §2

Z138 = assay: DNS cytotoxicity assay, Z138; format: cell-based; settings: Homo sapiens, Z-138; Mantle cell Lymphoma; 48 or 72 hrs
Source text: as §1, §2

U226 = assay: DNS cytotoxicity assay, U226; format: cell-based; settings: Homo sapiens, Multiple Myeloma, 48 or 72 hrs
Source text: as §1, §2

MDA-MB231 = assay: DNS cytotoxicity assay, MDA-MB-231; format: cell-based; settings: Homo sapiens, Table 4, Breat Cancer, 72 hrs, read-out: CC50 MDA-MB231
Method: as §5, §6

MDA-468 = assay: DNS cytotoxicity assay, MDA-468; format: cell-based; settings: Homo sapiens; Breat Cancer; 72 hrs
Source text: as §1, §2

K562 = assay: DNS cytotoxicity assay, K562; format: cell-based; settings: Homo sapiens, Lymphoma-Leukemia, 48 hrs
Source text: as §1, §2

In the case of Cc1ccc2c(c1)/C(=N/NC(=O)c1n[nH]c3c1CCC3)C(=O)N2 [SSK-3, N-(5-methyl-2-oxoindolin-3ylidene)-1,4,5,6-tetrahydrocyclopenta[c]pyrazole-3-carbohydrazide], the Tubulin polymerization inhibition (Tubulin) is reported as “inhibiting tubulin polymerization”, the CC50 (HL-60) is reported as 750 nM and the CC50 (MM.1R) is reported as 3880 nM. For the same molecule, the CC50 (Colo 205) was 2430 nM, the CC50 (T47D) was 3870 nM and the Mitochondrial depolarization (CEM cells [1]) was “Mitochondrial depolarization was observed”. For the same molecule, the “induction of the intrinsic apoptosis pathway” value (CEM cells [2]) was “induces the intrinsic apoptosis pathway”, the CC50 (CEM cell line; Homo sapiens, CCRF-CEM, 48 h, Table 4, Lymphoma-Leukemia, 48 hrs, read-out: CC50 CEM) was 1400 nM and the CC50 (CEM cell line; Initial Screen, DNS assay, read-out: CEM CC50) was 1390 ± 680 nM. The “disruption of membrane microtubule organization” value [3] was “severe disruption of membrane microtubule organization”, the CC50 (RPMI-8226) was 2470 nM and the CC50 (NALM-6) was 2040 nM. For the same molecule, the CC50 at 72 h [4] was 15400 nM, the “times more cytotoxic toward Jurkat than HS27” value (Jurkat; CC50 HS27 / CC50 Jurkat) was 37 times and the CC50 (Jurkat; Homo sapiens, Jurkat, Lymphoma-Leukemia, 48 hrs) was 420 nM. The CC50 (MiNO) was 1070 nM, the CC50 (Jeko-1) was 1240 nM and the “Generation of Reactive Oxygen Species (ROS)” value (CEM cells [5]) was “led to the generation of Reactive Oxygen Species (ROS)”. The CC50 (MM.1S) was 4610 nM, the induction of apoptosis (HL-60 leukemia cell line) was “induced apoptosis via mitochondrial depolarization and phosphatidylserine membrane exposure” and the CC50 (PANC-1) was 1860 nM. For the same molecule, the CC50 (JVM-13) was 790 nM, the “PS externalization” value (CEM cells [6]) was “induces significant PS externalization in a dose-response manner; also recorded: Induction of Phosphatidylserine (PS) externalization” and the CC50 (RAMOS) was 1650 nM. For the same molecule, the caspase-3 activation (caspase-3 in CEM cells) was “induced a statistically significant activation of caspase-3; also recorded: Activation of Caspase 3 was detected”, the cell cycle arrest (cell cycle) was “cause cell cycle arrest and interfere with cellular replication” and the CC50 (JVM-2) was 790 nM. The CC50 (HCC1419) was over 20000 nM, the CC50 (Z138) was 3360 nM and the CC50 (U226) was 4440 nM. The CC50 (MDA-MB231) was 2300 nM, the CC50 (MDA-468) was 3980 nM and the CC50 (K562) was 2130 nM.
